The source of these data is patent US9988375B2, “Inhibitors of lysine gingipain” (priority 2014, dated 2018).

As a reminder, the Ki is the dissociation constant of the complex between target and ligand, obtained from inhibition or displacement. As a reminder, the IC50 is the concentration that gives 50% inhibition.

“Also recorded” adds a separate entry of the source. Like-named read-outs stand apart in the source and are kept apart here. Some results are limits rather than exact numbers.

In experiment [1] the target is T1, trypsin (Homo sapiens (Human), UniProt P07477). Conditions: cited from earlier work.
Another experiment has as its target Kgp (Porphyromonas gingivalis (strain ATCC 33277 / DSM 20709 / CIP 103683 / JCM 12257 / NCTC 11834 / 2561), UniProt B2RLK2). Conditions: cited from earlier work.
Experiment [2] relates to differentiated SHSY-5Y cells. The experiment can be described thus: Gingipain-induced death of differentiated SH-SY5Y cells. The following applies: 100 nM Kgp and/or RgpB for 24 hours. In kind it is cell-based. As for the experimental part:
SH-SY5Y neuroblastoma cells were cultured and differentiated in the presence of 5 uM retinoic acid based on established methods [Saberi S., et al. Cell Mol Neurobiol 2013. 33: 747-751]. Differentiation into neuronal cells was verified by observation of neurite outgrowth. The differentiated cells were exposed to 100 nM Kgp and/or RgpB for 24 hours, in the presence or absence of Kgp inhibitors. Results were recorded using a digital microscope camera (FIG. 1C, FIG. 2C). Gingipains are toxic to cells while COR compounds prevent the cytotoxicity.

Experiment [3] concerns the target T1, trypsin. The experiment can be described thus: Trypsin inhibition. The experiment is classed as biochemical. As for the experimental part:
(§1) The inhibitory of activity of compounds described herein was tested against Kgp, RgpB, and trypsin.

In a further experiment the target is lysine gingipain (Kgp) (Porphyromonas gingivalis (strain ATCC 33277 / DSM 20709 / CIP 103683 / JCM 12257 / NCTC 11834 / 2561), UniProt B2RLK2). The experiment can be described thus: Lysine gingipain (Kgp) fluorogenic inhibition assay. In kind it is biochemical. As for the experimental part:
The capacities of compounds of the present invention to inhibit the activity of lysine gingipain were measured in a fluorogenic assay similar to those described in Barret Biochemical Journal. 1980, 187(3), 909. The specific assay conditions were as follows. Buffer: pH=7.5, 100 mM Tris-HCl, 75 mM NaCl, 2.5 mM CaCl2, 10 mM cysteine, 1% DMSO after all additions. Protein: 0.1 nM Kgp, isolated from culture of Porphyromonas gingivalis, as described in Pike et al. J. Biol. Chem. 1994, 269(1), 406, and Potempa and Nguyen. Current Protocols in Protein Scienc. 2007, 21.20.1-21.20.27. Fluorogenic substrate: 10 uM Z-His-Glu-Lys-MCA. Time=90 minutes. Temperature=37° C. Each compound: 10 concentrations, starting at either 100 uM or 100 nM, with lower concentrations generated by serial 3-fold dilutions. By testing a range of concentrations for each compound, the concentration required to inhibit the activity of lysine gingipain by 50% (the “IC50”) was determined. Under the described assay conditions, signal-to-noise was excellent, and Z factor was greater than 0.6.
as §1

Another experiment has as its system abeta 42. The experiment can be described thus: Brain abeta 42 ELISA in mice orally infected with P. gingivalis. The experiment is classed as in vivo, Balb/cJ mice. Conditions: subcutaneously three times per day on days 21-42. An excerpt: Female Balb/cJ mice were obtained from Taconic and allowed to acclimate. 43-44 week old mice were challenged orally with 10^9 CFU W83 P. gingivalis or a P. gingivalis strain lacking expression of Kgp every other day for 42 days. Compound 2 or vehicle (2% DMSO) was given subcutaneously three times per day on days 21-42. On day 42 mice were sacrificed and the brain removed and frozen. A sample including hippocampal tissue was lysed in RIPA buffer with protease inhibitors and analyzed for Abeta42 expression with the Amyloid beta 42 ELISA Kit, Mouse (Life Technologies).
In general terms: In an ELISA, binding on a coated surface is turned into a signal by an enzyme label.

Another experiment concerns the target RgpB (Porphyromonas gingivalis (strain ATCC BAA-308 / W83), UniProt P95493). The experiment can be described thus: RgpB inhibition. The experiment is classed as biochemical. On the procedure: as §1
The test system of a further experiment is SHSY5Y cells. The experiment can be described thus: P. gingivalis-induced toxicity in SHSY5Y cells in vitro. In kind it is cell-based. Conditions: compared to the antibiotic moxifloxacin.

As for `NCCC[C@H](NC(=O)C1CCCN(C(=O)CCc2ccccc2)C1)C(=O)c1nc2ccccc2s1` (mixture of isomers) [Compound A71561, 1-(3-phenylpropionyl)piperidine-3(R,S)-carboxylic acid [4-amino-1(S)-(benzothiazole-2-carbonyl)butyl]amide], the Ki on trypsin [1] was 30 nM; at Kgp it was 0.9 nM.

With `NCCCC[C@H](NC(=O)C1CCCCC1)C(=O)c1nc2ccccc2s1` [Compound 2, N-[(1S)-5-amino-1-(1,3-benzothiazole-2-carbonyl)pentyl]cyclohexanecarboxamide], in experiment [2], the “prevention of gingipain-induced death of differentiated SHSY-5Y cells” value was “prevents; also recorded: more effective; also recorded: effective at preventing cell death”. In addition, the IC50 is 5000 nM at trypsin [3] and 1 to 10 nM on lysine gingipain (Kgp) (read-out: Kgp IC50). For the same molecule, in the experiment on abeta 42, the “brain levels of abeta 42 (ELISA)” value is recorded as “resolved; also recorded: increase in abeta42 that was not apparently”.

As for `NCCCC[C@H](NC(=O)C1CCCC1)C(=O)COc1c(F)c(F)cc(F)c1F` [Compound 43, N-[(1S)-5-amino-1-[2-(2,3,5,6-tetrafluorophenoxy)acetyl]pentyl]cyclo-pentanecarboxamide], the half-maximal inhibitory concentration (IC50) at lysine gingipain (Kgp) (0.1 nM Kgp, 10 uM Z-His-Glu-Lys-MCA, 90 minutes, 37° C., pH 7.5, read-out: Kgp IC50 average) is not above 1 nM; at RgpB, more than 475 nM. For the same molecule, the “lysine gingipain IC50 value” at lysine gingipain (Kgp) (in words) is given as “sub-nanomolar”. In addition, the “protection of SHSY5Y cells from P. gingivalis-induced toxicity” value with SHSY5Y cells is “protects”.
